According to patent publication US20160280688A1, “SUBSTITUTED PHENYLALANINE DERIVATIVES” (BAYER PHARMA AKTIENGESELLSCHAFT, priority 2013, published 2016):
Counter-ions that a name gives are not always drawn.

Columns and labels:
Assay type in all cases: biochemical
[1] = molecular target: T1, human factor XIa (Homo sapiens, UniProt P03951); assay: Measurement of FXIa inhibition (fluorogenic peptide substrate Boc-Glu(OBzl)-Ala-Arg-AMC); conditions: factor XIa from Kordia, 15 min preincubation, 30 min at 22° C., fluorescence
T1 construct: purchased Kordia
T1 sequence (P03951 388-625 limits assumed): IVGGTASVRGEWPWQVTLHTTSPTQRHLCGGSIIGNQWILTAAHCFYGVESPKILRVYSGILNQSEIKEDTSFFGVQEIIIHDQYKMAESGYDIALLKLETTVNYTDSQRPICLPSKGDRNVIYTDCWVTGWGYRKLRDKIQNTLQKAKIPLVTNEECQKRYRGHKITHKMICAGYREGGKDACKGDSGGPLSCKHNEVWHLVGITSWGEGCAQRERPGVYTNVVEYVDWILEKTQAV
T1 sequence (P03951 19-387 partner limits assumed): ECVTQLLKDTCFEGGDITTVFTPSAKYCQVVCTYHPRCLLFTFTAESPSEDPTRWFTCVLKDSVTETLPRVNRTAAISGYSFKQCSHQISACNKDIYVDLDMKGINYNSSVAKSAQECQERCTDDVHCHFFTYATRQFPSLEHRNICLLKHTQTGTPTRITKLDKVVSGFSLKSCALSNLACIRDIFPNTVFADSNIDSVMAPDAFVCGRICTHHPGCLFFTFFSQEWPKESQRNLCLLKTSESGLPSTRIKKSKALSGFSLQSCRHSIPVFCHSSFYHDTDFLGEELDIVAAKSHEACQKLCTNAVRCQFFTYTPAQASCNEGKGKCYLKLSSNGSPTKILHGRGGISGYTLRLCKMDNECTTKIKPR
Method: To determine the factor XIa inhibition of the substances according to the invention, a biochemical test system is used which utilizes the reaction of a peptidic factor XIa substrate to determine the enzymatic activity of human factor XIa. Here, factor XIa cleaves from the peptic factor XIa substrate the C-terminal aminomethylcoumarin (AMC), the fluorescence of which is measured. The determinations are carried out in microtitre plates.
(§1) Test substances are dissolved in dimethyl sulphoxide and serially diluted in dimethyl sulphoxide (3000 μM to 0.0078 μM; resulting final concentrations in the test: 50 μM to 0.00013 μM). In each case 1 μl of the diluted substance solutions are placed into the wells of white microtitre plates from Greiner (384 wells). Subsequently, the following are added successively: 20 μl of assay buffer (50 mmol/l Tris buffer pH 7.4; 100 mmol/l sodium chloride; 5 mmol/l calcium chloride; 0.1% bovine serum albumin) and 20 μl of factor XIa from Kordia (0.45 nM in assay buffer). After 15 min of incubation, the enzyme reaction is started by addition of 20 μl of the factor XIa substrate Boc-Glu(OBzl)-Ala-Arg-AMC dissolved in assay buffer (10 μM in assay buffer) from Bachem, the mixture is incubated at room temperature (22° C.) for 30 min and fluorescence is then measured (excitation: 360 nm, emission: 460 nm). The measured emissions of the test batches with test substance are compared to those of control batches without test substance (only dimethyl sulphoxide instead of test substance in dimethyl sulphoxide), and IC50 values are calculated from the concentration/activity relationships.

[2] = tested on: human and animal plasma; assay: Determination of the anticoagulatory activity: activated partial thromboplastin time (aPTT) in plasma; conditions: in vitro in plasma, C.K. Prest kit, 3 min at 37° C.
Method: The anticoagulatory activity of the test substances is determined in vitro in human and animal plasma (for example mouse, rat, rabbit, pig and dog plasma). To this end, blood is drawn off in a mixing ratio of sodium citrate/blood of 1:9 using a 0.11 molar sodium citrate solution as receiver. Immediately after the blood has been drawn off, it is mixed thoroughly and centrifuged at about 4000 g for 15 minutes. The supernatant is pipetted off.
The activated partial thromboplastin time (aPTT) is determined in the presence of varying concentrations of test substance or the corresponding solvent using a commercial test kit (C.K. Prest from Diagnostica Stago). The test compounds are incubated with the plasma and the PTT reagent (cephalin, kaolin) at 37° C. for 3 minutes. Coagulation is then started by addition of a 25 mM aqueous calcium chloride solution, and the time when coagulation occurs is determined. The concentration of test substance which brings about a 1.5-fold extension of the aPTT is determined Activity data from this test are listed in Table B below: […]

[3] = molecular target: T2, human plasmin (Homo sapiens, UniProt P00747); assay: Measurement of plasmin inhibition (fluorogenic peptide substrate MeOSuc-Ala-Phe-Lys-AMC); conditions: plasmin from Kordia, 15 min preincubation, 30 min at 22° C., fluorescence
T2 construct: purchased Kordia
T2 sequence (P00747 581-810 limits assumed): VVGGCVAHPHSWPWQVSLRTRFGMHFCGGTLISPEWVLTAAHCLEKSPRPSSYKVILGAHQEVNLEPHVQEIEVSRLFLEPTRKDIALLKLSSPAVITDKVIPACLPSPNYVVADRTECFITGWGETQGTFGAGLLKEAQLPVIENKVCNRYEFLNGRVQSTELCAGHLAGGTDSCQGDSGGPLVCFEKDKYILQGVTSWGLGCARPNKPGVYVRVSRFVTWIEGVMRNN
T2 sequence (P00747 97-580 partner limits assumed): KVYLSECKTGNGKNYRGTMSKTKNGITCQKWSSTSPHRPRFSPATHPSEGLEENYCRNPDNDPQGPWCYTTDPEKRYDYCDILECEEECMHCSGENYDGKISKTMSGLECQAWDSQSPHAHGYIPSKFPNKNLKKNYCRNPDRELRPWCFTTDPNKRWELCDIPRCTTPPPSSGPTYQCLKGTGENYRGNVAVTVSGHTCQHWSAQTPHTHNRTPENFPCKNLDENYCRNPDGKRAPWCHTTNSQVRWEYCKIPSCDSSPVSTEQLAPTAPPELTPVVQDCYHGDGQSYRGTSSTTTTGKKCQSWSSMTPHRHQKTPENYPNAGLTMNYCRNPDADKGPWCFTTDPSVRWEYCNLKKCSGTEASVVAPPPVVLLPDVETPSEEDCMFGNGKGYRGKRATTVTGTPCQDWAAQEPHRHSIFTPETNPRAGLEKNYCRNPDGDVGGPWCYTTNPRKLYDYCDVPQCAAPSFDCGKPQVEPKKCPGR
Method: The plasmin inhibition of the inventive substances is determined using a biochemical test system which utilizes the reaction of a peptidic plasmin substrate to determine the enzymatic activity of human plasmin. Here, plasmin cleaves from the peptic plasmin substrate the C-terminal aminomethylcoumarin (AMC), the fluorescence of which is measured. The determinations are carried out in microtitre plates.
as §1, with “plasmin” for “factor XIa”, “(0.3 μg/ml” for “(0.45 nM”, “MeOSuc-Ala-Phe-Lys-AMC” for “Boc-Glu(OBzl)-Ala-Arg-AMC”, “(150” for “(10”, “ICso” for “IC50”

| Compound | IC50 [1] | aPTT (concentration of test substance which brings about a 1.5-fold extension of the aPTT) [2] | IC50 [3] | aPTT (concentration of test substance which brings about a 1.5-fold extension of the aPTT) ([2]; hydrochloride) |
| --- | --- | --- | --- | --- |
| Cc1cc2oc(C3CC3)nc2cc1-c1ccc(C[C@H](NC(=O)[C@H]2CC[C@H](CN)CC2)C(=O)Nc2ccc(-c3nnn[nH]3)cc2)cc1.Cl (relative stereo) [Example 26, N-alpha-{[trans-4-(Aminomethyl)cyclohexyl]carbonyl}-4-(2-cyclopropyl-6-methyl-1,3-benzoxazol-5-yl)-N-[4-(1H-tetrazol-5-yl)phenyl]-L-phenylalaninamide hydrochloride] | 1.4 nM | 0.18 µmol/L | 2.7 nM |  |
| NC[C@H]1CC[C@H](C(=O)N[C@@H](Cc2ccc(-c3cc4nc(C5CC5)[nH]c4cc3Cl)cc2)C(=O)Nc2ccc3[nH]c(=O)[nH]c3c2)CC1 [Example 23, N-alpha-{[trans-4-(Aminomethyl)cyclohexyl]carbonyl}-4-(6-chloro-2-cyclopropyl-1H-benzimidazol-5-yl)-N-(2-oxo-2,3-dihydro-1H-benzimidazol-5-yl)-L-phenylalaninamide hydrochloride] | 2.3 nM | 0.27 µmol/L | 0.95 nM |  |
| CC(C)c1nc2c(F)c(F)c(-c3ccc(C[C@H](NC(=O)[C@H]4CC[C@H](CN)CC4)C(=O)Nc4ccc5[nH]c(=O)[nH]c5c4)cc3)cc2[nH]1 [Example 35, N-alpha-{[trans-4-(Aminomethyl)cyclohexyl]carbonyl}-4-(4,5-difluoro-2-isopropyl-1H-benzimidazol-6-yl)-N-(2-oxo-2,3-dihydro-1H-benzimidazol-5-yl)-L-phenylalaninamide hydrochloride] | 6.9 nM | 0.54 µmol/L | 1.5 nM |  |
| Cc1cc2nc(C3CC3)nn2cc1-c1ccc(C[C@H](NC(=O)[C@H]2CC[C@H](CN)CC2)C(=O)Nc2ccc3[nH]c(=O)[nH]c3c2)cc1 [Example 36, N-alpha-{[trans-4-(Aminomethyl)cyclohexyl]carbonyl}-4-(2-cyclopropyl-7-methyl[1,2,4]triazolo[1,5-a]pyridin-6-yl)-N-(2-oxo-2,3-dihydro-1H-benzimidazol-5-yl)-L-phenylalaninamide hydrochloride] | 3.6 nM | 0.08 µmol/L | 1.2 nM |  |
| Cc1cc2[nH]c(C(C)C)nc2cc1-c1ccc(C[C@H](NC(=O)[C@H]2CC[C@H](CN)CC2)C(=O)Nc2ccc3nc(C(F)(F)C(F)(F)F)[nH]c3c2)cc1 [Example 25, N-alpha-{[trans-4-(Aminomethyl)cyclohexyl]carbonyl}-4-(2-isopropyl-6-methyl-1H-benzimidazol-5-yl)-N-[2-(pentafluoroethyl)-1H-benzimidazol-6-yl]-L-phenylalaninamide hydrochloride] | 13 nM | 0.96 µmol/L | 1.7 nM |  |
| Cc1cc2[nH]c(C3CC3)nc2cc1-c1ccc(C[C@H](NC(=O)[C@H]2CC[C@H](CN)CC2)C(=O)Nc2cc(F)c3c(=O)[nH][nH]c3c2)cc1 [Example 22, N-alpha-{[trans-4-(Aminomethyl)cyclohexyl]carbonyl}-4-(2-cyclopropyl-6-methyl-1H-benzimidazol-5-yl)-N-(4-fluoro-3-oxo-2,3-dihydro-1H-indazol-6-yl)-L-phenylalaninamide hydrochloride] | 0.5 nM | 0.18 µmol/L | 0.6 nM |  |
| CC(C)n1[nH]c2cc(-c3ccc(C[C@H](NC(=O)[C@H]4CC[C@H](CN)CC4)C(=O)Nc4ccc5[nH]c(=O)[nH]c5c4)cc3)ccc2c1=O [Example 33, N-alpha-{[trans-4-(Aminomethyl)cyclohexyl]carbonyl}-4-(2-isopropyl-3-oxo-2,3-dihydro-1H-indazol-6-yl)-N-(2-oxo-2,3-dihydro-1H-benzimidazol-5-yl)-L-phenylalaninamide hydrochloride] | 17 nM | 0.1 µmol/L | 5.9 nM |  |
| Cc1cc2nc[nH]c2cc1-c1ccc(C[C@H](NC(=O)[C@H]2CC[C@H](CN)CC2)C(=O)Nc2ccc3c(=O)[nH][nH]c3c2)cc1 [Example 30, N-alpha-{[trans-4-(Aminomethyl)cyclohexyl]carbonyl}-4-(5-methyl-1H-benzimidazol-6-yl)-N-(3-oxo-2,3-dihydro-1H-indazol-6-yl)-L-phenylalaninamide hydrochloride] | 1.7 nM |  | 5.9 nM | 0.07 µmol/L |
| CC(C)c1nc2cc(C(F)(F)F)c(-c3ccc(C[C@H](NC(=O)[C@H]4CC[C@H](CN)CC4)C(=O)Nc4ccc5[nH]c(=O)[nH]c5c4)cc3)cc2[nH]1 [Example 31, N-alpha-{[trans-4-(Aminomethyl)cyclohexyl]carbonyl}-4-[2-isopropyl-5-(trifluoromethyl)-1H-benzimidazol-6-yl]-N-(2-oxo-2,3-dihydro-1H-benzimidazol-5-yl)-L-phenylalaninamide hydrochloride] | 3.1 nM | 0.07 µmol/L | 2.1 nM |  |
